Data reported in ChEMBL document CHEMBL1201862, “PubChem BioAssay data set” (2004).
Activity calls are given as the source filed them.

How the values were obtained:
Nonstructural protein 1 = Nonstructural protein 1 (Influenza A virus, UniProt Q194T2); assay type: functional, Influenza A virus (A/California/07/2009(H1N1))
Mucolipin-3 = biological target: T1, Mucolipin-3 (Homo sapiens, UniProt Q8TDD5); test: Fluorescence counterscreen assay for […] agonists: dose response cell-based high-throughput screening assay to identify agonists of the transient receptor potential channel ML3 (TRPML3). [Related pubchem assays: 1424, 1448 ]; assay type: functional
T1 sequence (Q8TDD5 whole entry): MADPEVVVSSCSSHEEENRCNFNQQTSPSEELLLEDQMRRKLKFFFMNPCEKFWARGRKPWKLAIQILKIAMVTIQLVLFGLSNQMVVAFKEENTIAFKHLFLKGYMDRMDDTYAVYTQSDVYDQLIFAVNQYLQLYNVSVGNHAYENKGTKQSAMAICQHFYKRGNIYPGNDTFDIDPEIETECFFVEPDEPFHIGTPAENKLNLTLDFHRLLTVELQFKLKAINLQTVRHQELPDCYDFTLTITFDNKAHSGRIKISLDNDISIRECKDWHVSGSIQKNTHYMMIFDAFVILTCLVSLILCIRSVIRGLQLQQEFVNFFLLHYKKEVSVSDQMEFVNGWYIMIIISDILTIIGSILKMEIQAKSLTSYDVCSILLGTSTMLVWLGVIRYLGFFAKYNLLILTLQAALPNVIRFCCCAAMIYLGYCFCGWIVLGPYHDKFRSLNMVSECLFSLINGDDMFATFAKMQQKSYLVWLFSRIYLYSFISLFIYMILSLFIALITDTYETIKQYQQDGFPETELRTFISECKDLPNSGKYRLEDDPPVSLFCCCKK

[1] = biological target: FAD-linked sulfhydryl oxidase ALR (Homo sapiens, UniProt P55789); test: inhibitors of human ALR sulfhydryl oxidase, dose response, biochemical, H2O2 detection, luminescence, cherry-pick (AID 493248)
NADPH oxidase 1 = biological target: T2, NADPH oxidase 1 (Homo sapiens, UniProt Q9Y5S8); test: Luminescence-based cell-based dose response assay to identify inhibitors of NADPH oxidase 1 (NOX1).; assay type: functional
T2 sequence (Q9Y5S8 whole entry): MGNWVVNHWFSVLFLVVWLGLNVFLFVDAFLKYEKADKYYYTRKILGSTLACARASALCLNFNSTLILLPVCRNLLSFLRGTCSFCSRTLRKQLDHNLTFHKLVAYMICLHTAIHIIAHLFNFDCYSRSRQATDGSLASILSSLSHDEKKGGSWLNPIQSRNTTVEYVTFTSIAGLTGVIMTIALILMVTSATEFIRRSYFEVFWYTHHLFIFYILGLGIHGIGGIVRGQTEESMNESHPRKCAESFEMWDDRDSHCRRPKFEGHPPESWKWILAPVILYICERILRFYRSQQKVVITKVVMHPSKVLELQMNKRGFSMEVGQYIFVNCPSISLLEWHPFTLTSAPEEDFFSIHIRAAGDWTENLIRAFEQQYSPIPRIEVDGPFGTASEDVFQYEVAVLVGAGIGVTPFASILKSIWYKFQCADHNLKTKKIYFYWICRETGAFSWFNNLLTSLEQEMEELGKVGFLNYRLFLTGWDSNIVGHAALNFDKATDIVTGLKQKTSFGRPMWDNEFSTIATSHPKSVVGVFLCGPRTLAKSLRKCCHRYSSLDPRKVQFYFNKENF

[2] = biological target: Induced myeloid leukemia cell differentiation protein Mcl-1 (Homo sapiens, UniProt Q07820); assay type: functional
Ion channel NompC = Ion channel NompC (Danio rerio, UniProt Q7T1G6); test: Dose response cell-based high-throughput screening assay for agonists of the transient receptor potential channel N1 (TRPN1). [Related pubchem assays (depositor defined):AID1424, AID1448]; assay type: functional
[3] = biological target: Luciferin 4-monooxygenase (Photinus pyralis, UniProt P08659); test: firefly luciferase enzyme inhibitors, dose response, biochemical, luminescence (AID 1891)
Sequence of Luciferin 4-monooxygenase (P08659 whole entry): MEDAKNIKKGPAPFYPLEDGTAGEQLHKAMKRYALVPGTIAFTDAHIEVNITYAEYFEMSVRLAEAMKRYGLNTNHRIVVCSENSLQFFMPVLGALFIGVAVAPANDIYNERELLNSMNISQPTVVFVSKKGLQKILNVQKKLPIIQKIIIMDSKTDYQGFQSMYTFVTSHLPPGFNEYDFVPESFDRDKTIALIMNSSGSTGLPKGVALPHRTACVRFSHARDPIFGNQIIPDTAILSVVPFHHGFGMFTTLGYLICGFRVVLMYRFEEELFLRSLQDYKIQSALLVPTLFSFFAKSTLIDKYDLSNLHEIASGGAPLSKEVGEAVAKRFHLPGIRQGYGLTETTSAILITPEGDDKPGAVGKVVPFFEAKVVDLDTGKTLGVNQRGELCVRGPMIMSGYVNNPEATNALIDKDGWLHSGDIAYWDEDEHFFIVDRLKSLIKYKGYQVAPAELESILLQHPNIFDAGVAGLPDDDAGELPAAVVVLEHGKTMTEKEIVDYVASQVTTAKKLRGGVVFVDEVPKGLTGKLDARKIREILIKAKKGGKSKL

[4] = Luminescence Cell-Based Dose Confirmation HTS to Identify Inhibitors of Platelet Dense Granule Release. [Related pubchem assays: 1663 (Primary HTS), 1678 (Summary of Project)]; assay type: functional
[5] = enhancers of respiration in Yfh1-depleted yeast, dose response, Friedreich's ataxia, plus single-dose screen (AID 1465); assay type: functional;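 also: yeast depleted of Yfh1p frataxin homolog grown on glycerol needing respiration; WST-1 tetrazolium dye reduction as measure of cellular dehydrogenase metabolic activity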
[6] = biological target: T3, Orexin/Hypocretin receptor type 1 (Homo sapiens, UniProt O43613); test: Homogeneous Time Resolved Fluorescence (HTRF)-based cell-based high throughput dose response assay for antagonists of the orexin 1 receptor (OX1R; HCRTR1). [Related pubchem assays (depositor defined):AID434989, AID435008, AID463079, AID485270, AID492963, AID492964, AID492965, AID493232, AID504717, AID504718]; assay type: functional
T3 sequence (O43613 whole entry): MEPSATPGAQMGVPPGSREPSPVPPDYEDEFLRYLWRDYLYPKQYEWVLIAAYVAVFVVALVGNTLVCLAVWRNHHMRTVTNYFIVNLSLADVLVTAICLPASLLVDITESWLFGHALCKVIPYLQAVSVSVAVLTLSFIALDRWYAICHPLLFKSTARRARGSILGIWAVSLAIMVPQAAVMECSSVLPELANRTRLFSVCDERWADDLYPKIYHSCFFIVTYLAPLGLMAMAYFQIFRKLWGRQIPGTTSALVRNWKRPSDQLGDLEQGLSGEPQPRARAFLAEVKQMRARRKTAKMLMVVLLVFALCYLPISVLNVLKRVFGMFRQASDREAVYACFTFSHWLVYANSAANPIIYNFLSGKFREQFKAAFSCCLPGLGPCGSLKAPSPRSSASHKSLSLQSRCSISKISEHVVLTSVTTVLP

CHO-K1 = test: (§1) Counterscreen for antagonists of the orexin 1 receptor (OX1R; HCRTR1): Homogeneous time resolved fluorescence (HTRF)-based cell-based dose response assay to identify antagonists of the parental CHO-K1 cell line. [Related pubchem assays (depositor defined):AID434989, AID435008, AID463079, AID485270, AID492963, AID492964, AID492965, AID493232, AID504699, AID504701]; assay type: functional; settings: Cricetulus griseus
[7] = biological target: T3, Orexin/Hypocretin receptor type 1; test: Fluorescence-based cell-based high throughput dose response assay for antagonists of the orexin 1 receptor (OX1R; HCRTR1). [Related pubchem assays (depositor defined):AID434989, AID435008, AID463079, AID485270, AID492963, AID492964, AID492965, AID493232, AID504717, AID504718]; assay type: functional
[8] = as §1, with “Fluorescence-based” for “Homogeneous time resolved fluorescence (HTRF)-based”, “cell-based high throughput” for “cell-based”, “CHO” for “CHO-K1”; assay type: functional
[9] = biological target: Intestinal-type alkaline phosphatase (Homo sapiens, UniProt P09923); test: human intestinal alkaline phosphatase activators, dose response, biochemical, luminescence, uHTS hits (AID 463120); assay type: functional
Tumor necrosis factor = Tumor necrosis factor (Homo sapiens, UniProt P01375); test: TNFa-triggered NF-kB activation inhibitors, SAR follow-up, cell-based, revised (AID 2337); assay type: functional
Sequence of Tumor necrosis factor (P01375 whole entry, the tested form may be a part): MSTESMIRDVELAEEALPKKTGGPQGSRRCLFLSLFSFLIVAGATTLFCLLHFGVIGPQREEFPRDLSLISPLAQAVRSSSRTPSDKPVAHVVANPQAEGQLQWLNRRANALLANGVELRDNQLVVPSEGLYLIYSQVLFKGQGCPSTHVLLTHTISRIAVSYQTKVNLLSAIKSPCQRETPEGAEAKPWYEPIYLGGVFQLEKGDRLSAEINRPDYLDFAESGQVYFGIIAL

[10] = biological target: Nucleotide-binding oligomerization domain-containing protein 1 (Homo sapiens, UniProt Q9Y239); test: NOD1 signaling inhibitors, SAR follow-up, revised (AID 2333); assay type: functional
Sequence of Nucleotide-binding oligomerization domain-containing protein 1 (Q9Y239 whole entry, the tested form may be a part): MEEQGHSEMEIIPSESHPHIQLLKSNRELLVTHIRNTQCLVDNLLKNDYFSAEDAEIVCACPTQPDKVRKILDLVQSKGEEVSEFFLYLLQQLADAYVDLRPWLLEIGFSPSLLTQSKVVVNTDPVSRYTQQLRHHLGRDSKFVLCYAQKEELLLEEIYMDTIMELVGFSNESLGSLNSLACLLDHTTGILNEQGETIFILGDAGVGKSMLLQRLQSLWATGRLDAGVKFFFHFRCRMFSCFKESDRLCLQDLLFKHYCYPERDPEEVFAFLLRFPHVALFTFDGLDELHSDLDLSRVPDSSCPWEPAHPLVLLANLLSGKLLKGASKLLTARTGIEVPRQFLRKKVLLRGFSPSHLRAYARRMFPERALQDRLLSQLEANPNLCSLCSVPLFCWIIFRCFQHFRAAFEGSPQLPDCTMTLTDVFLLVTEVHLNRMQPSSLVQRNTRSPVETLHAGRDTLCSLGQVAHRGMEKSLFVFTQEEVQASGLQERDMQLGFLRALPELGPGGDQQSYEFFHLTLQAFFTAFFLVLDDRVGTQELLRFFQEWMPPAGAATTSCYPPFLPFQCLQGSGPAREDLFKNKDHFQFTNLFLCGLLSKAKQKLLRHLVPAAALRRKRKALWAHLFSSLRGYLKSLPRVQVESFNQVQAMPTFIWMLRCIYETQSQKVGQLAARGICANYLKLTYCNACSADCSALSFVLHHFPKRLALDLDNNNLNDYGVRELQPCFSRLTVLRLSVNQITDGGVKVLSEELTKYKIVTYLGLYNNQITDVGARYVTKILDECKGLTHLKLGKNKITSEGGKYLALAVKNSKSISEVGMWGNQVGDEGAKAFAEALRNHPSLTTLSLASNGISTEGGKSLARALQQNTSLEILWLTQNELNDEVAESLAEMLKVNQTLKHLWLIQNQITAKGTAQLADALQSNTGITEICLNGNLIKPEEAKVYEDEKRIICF

HEK293 = test: cells; settings: Homo sapiens;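 also: cells exposed to compound for 14 hours overnight before viability readout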
[11] = biological target: Nucleotide-binding oligomerization domain-containing protein 2 (Homo sapiens, UniProt Q9HC29); test: PubChem AID 2334; assay type: functional
[12] = biological target: T4, Tyrosine-protein phosphatase non-receptor type 22 (Homo sapiens, UniProt Q9Y2R2); assay type: functional
T4 sequence (Q9Y2R2 whole entry): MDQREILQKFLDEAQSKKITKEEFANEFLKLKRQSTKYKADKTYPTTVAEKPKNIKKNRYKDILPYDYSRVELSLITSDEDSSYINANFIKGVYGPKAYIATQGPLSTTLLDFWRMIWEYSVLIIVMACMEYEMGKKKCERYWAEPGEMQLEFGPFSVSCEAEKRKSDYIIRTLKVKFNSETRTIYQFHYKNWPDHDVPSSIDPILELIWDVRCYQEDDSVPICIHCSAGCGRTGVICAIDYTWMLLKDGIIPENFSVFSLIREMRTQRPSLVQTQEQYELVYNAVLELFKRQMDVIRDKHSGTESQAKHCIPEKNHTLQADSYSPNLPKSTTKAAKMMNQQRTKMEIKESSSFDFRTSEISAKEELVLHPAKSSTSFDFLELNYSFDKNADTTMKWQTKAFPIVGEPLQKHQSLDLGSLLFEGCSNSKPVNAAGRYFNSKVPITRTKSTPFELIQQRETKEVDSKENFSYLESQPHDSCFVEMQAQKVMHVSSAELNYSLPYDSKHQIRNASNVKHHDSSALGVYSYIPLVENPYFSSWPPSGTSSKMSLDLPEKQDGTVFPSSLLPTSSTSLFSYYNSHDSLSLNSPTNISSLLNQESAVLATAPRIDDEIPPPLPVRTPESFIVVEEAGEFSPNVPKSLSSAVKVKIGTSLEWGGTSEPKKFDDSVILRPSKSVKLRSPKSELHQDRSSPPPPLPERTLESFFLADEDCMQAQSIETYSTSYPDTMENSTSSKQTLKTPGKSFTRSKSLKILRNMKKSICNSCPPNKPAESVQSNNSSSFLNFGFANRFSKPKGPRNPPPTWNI

[13] = biological target: T5, Tyrosine-protein phosphatase non-receptor type 7 (Homo sapiens, UniProt P35236); assay type: functional
T5 sequence (P35236 whole entry): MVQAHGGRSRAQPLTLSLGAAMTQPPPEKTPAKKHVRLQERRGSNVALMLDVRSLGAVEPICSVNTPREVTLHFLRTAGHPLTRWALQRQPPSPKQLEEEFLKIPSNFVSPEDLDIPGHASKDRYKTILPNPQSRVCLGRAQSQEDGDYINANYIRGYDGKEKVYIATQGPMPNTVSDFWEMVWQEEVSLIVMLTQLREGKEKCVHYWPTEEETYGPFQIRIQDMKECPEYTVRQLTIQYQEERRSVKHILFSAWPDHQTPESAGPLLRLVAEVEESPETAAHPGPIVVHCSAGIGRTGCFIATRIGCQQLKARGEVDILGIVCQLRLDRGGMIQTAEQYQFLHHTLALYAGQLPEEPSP

[14] = biological target: T4, Tyrosine-protein phosphatase non-receptor type 22; assay type: functional; remark: listed apart in the source
[15] = biological target: T6, E3 ubiquitin-protein ligase XIAP (Homo sapiens, UniProt P98170); test: SAR analysis of Antagonists of IAP-family anti-apoptotic proteins. [Related pubchem assays (depositor defined):AID1018, AID1449, AID1513, AID1514, AID1638]
T6 sequence (P98170 whole entry, the tested form may be a part): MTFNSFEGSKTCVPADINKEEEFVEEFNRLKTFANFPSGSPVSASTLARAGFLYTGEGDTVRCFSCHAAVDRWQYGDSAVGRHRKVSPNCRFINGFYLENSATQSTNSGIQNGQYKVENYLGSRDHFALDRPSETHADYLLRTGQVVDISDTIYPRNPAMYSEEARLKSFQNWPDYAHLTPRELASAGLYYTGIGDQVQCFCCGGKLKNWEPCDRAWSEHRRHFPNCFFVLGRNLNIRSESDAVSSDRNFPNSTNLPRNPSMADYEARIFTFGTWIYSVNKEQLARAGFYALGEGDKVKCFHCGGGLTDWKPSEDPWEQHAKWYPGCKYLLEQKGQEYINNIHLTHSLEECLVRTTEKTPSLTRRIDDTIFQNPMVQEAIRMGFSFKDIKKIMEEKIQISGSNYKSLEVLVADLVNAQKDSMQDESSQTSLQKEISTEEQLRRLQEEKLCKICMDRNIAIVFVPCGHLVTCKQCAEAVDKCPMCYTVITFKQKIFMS

[16] = biological target: T6, E3 ubiquitin-protein ligase XIAP; test: SAR analysis of Antagonists of XIAP-Bir3 domain of IAP-family anti-apoptotic proteins. [Related pubchem assays (depositor defined):AID1018, AID1449, AID1513, AID1514, AID1638]
[17] = biological target: Signal transducer and activator of transcription 3 (Homo sapiens, UniProt P40763); test: STAT3 inhibitors, late-stage profile, late-stage follow-up, cell-based, STAT1 panel, qPCR, cytotoxicity, panel member STAT3 Inhibition (AID 2078)
[18] = biological target: Signal transducer and activator of transcription 1-alpha/beta (Homo sapiens, UniProt P42224); test: STAT3 inhibitors, late-stage profile, late-stage follow-up, cell-based, STAT1 panel, qPCR, cytotoxicity, panel member STAT1 Inhibition (AID 2078)
Sequence of Signal transducer and activator of transcription 1-alpha/beta (P42224 whole entry): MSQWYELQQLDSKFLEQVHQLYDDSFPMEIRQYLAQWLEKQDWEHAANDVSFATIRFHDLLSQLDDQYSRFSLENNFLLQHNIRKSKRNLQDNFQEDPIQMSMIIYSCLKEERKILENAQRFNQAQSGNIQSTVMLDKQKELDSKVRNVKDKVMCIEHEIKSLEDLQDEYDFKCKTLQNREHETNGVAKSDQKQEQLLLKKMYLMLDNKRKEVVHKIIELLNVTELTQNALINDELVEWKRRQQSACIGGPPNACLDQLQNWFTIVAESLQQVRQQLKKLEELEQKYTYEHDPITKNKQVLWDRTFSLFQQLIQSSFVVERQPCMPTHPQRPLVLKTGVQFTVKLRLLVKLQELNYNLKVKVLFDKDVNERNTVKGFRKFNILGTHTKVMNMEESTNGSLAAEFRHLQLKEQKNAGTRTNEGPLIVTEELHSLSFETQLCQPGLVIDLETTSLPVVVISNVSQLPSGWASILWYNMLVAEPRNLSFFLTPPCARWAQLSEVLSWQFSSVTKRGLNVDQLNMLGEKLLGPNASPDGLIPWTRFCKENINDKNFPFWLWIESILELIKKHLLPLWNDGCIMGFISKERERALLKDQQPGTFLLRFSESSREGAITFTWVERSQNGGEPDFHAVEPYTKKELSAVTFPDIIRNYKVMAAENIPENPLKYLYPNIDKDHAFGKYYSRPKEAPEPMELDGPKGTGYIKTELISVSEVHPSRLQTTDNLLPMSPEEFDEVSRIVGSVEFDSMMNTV

[19] = biological target: Delta-type opioid receptor (Homo sapiens, UniProt P41143); test: SAR Analysis of Agonists of the DOR Receptor using an Image-Based Assay - Set 3. [Related pubchem assays (depositor defined):AID1777, AID1786]; assay type: functional
Mu-type opioid receptor = Mu-type opioid receptor (Homo sapiens, UniProt P35372); test: SAR Analysis of Agonists of the MOR Receptor using an Image-Based Assay - Set 3. [Related pubchem assays (depositor defined):AID1777, AID1785, AID1786, AID1966, AID2133, AID2136, AID2284, AID2285, AID2352]; assay type: functional
[20] = biological target: T7, Kappa-type opioid receptor (Homo sapiens, UniProt P41145); test: KOR agonist analogs, arrestin-GFP redistribution, SAR follow-up, imaging, image-based, set 3 (AID 488833); assay type: functional
T7 sequence (P41145 whole entry): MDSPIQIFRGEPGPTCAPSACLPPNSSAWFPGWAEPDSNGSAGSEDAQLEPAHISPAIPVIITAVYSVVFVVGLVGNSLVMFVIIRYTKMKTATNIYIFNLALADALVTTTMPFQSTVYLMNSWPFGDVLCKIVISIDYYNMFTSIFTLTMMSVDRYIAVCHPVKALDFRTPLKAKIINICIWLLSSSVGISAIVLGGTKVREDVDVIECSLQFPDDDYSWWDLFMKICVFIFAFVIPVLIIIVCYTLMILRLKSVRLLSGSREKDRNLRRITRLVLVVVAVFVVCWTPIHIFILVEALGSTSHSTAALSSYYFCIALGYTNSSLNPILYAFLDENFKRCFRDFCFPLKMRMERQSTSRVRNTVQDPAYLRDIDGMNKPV

[21] = biological target: T7, Kappa-type opioid receptor; test: SAR analysis of small molecule agonists of the kappa opioid receptor via a luminescent beta-arrestin assay - Set 3. [Related pubchem assays (depositor defined):AID1777, AID1785, AID1786, AID1966, AID2133, AID2136, AID2284, AID2500]; assay type: functional

Sequence of Nonstructural protein 1 (Q194T2 whole entry): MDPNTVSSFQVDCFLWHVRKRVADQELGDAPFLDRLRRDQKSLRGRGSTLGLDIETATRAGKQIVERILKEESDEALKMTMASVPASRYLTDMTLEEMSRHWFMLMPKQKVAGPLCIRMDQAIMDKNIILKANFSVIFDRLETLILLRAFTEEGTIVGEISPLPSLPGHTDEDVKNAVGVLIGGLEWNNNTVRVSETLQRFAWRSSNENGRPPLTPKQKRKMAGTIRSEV

CN(C)c1ccc(NC(=O)Nc2ccc3snnc3c2)cc1
IC50 (Nonstructural protein 1): > 100 µM (active) | EC50 (Mucolipin-3): > 29.9 µM (not active) | AC50 [1]: 0.204 µM (active) | IC50 (NADPH oxidase 1): 0.187 µM (active) | IC50 [2]: 0.455 µM (active) | EC50 (Ion channel NompC): > 29.9 µM (inactive)

O=C(N/C(=C/c1cccc(Br)c1)c1nc(S)n[nH]1)c1ccccc1
EC50 [3]: 28.9 µM (active) | EC50 [4]: > 112 µM (not active) | EC50 [5]: > 100 µM (active) | IC50 [6]: > 66.2 µM (inactive) | IC50 (CHO-K1): > 66.2 µM (inactive) | IC50 [7]: 16.8 µM (inactive) | IC50 [8]: 33.3 µM (inactive)

O=C(COc1ccc2ccccc2c1Br)N1CCCCC1
EC50 [9]: > 100 µM (inactive)

Cc1ccc(C(=O)Nc2sc3c(c2C(=O)O)CCCC3)o1
IC50 (Tumor necrosis factor): > 20 µM (inactive) | IC50 [10]: > 20 µM (inactive) | IC50 (HEK293): > 20 µM (inactive) | IC50 [11]: > 20 µM (inactive)

Cc1cc(C)nc(NC(=O)c2cc(-c3ccc(C)s3)nc3ccccc23)c1
IC50 [12]: > 79.4 µM (inactive) | IC50 [13]: > 79.4 µM (inactive) | IC50 [14]: > 79.4 µM (inactive)

CN[C@@H](C)C(=O)N[C@H](C(=O)N1CCC[C@H]1C(=O)Nc1ccc2[nH]ccc2c1)C(C)C
IC50 [15]: 2 µM (active) | IC50 [16]: 14.3 µM (active)

Cc1sc2ncnc(N3CCC(Cc4ccccc4)CC3)c2c1C
IC50 [17]: > 18.6 µM (inactive) | IC50 [18]: > 55.7 µM (inactive)

Fc1cc(F)cc(CSc2nnc(-c3ccccn3)n2Cc2ccco2)c1
EC50 [19]: > 64 µM (inactive) | EC50 (Mu-type opioid receptor): > 32 µM (inactive) | EC50 [20]: 20.6 µM (inactive) | EC50 [21]: 7.89 µM (active)
